According to patent US20260001928A1 (CORTERIA PHARMACEUTICALS, priority 2022, published 2026):
*1 amine or outer side, *2 acyl side, *3 side chain or, on linkers, in order; H or OH if unused. Where a SMILES comes first, the peptide text is derived from it. Side-chain parts run from the residue outwards. [ ]: non-standard residue; d: D form. The star is where a group is joined. C20 diacid = O=C(O)CCCCCCCCCCCCCCCCCCC(=O)*; C16 diacid = O=C(O)CCCCCCCCCCCCCCC(=O)*; γGlu = O=C(O)[C@H](CCC(=O)[*:2])N[*:1]; NMeI = CC[C@H](C)[C@H](NC)C(=O)O; AEEA = NCCOCCOCC(=O)O; Aib = CC(C)(N)C(=O)O

Tests used:
human CRF2a receptor = target: T1, human CRF2a receptor (Homo sapiens, UniProt Q13324); experiment: Activity at human CRF2a receptor, cAMP functional assay in TeloHEAC cells; format: cell-based; conditions: TeloHEAC cells stably expressing human CRF2a receptor, relative to urocortin 2 (100 nM = 100%)
T1 construct: expressed in transfected cells; host or cells: TeloHEAC cells
T1 sequence (Q13324 1-411): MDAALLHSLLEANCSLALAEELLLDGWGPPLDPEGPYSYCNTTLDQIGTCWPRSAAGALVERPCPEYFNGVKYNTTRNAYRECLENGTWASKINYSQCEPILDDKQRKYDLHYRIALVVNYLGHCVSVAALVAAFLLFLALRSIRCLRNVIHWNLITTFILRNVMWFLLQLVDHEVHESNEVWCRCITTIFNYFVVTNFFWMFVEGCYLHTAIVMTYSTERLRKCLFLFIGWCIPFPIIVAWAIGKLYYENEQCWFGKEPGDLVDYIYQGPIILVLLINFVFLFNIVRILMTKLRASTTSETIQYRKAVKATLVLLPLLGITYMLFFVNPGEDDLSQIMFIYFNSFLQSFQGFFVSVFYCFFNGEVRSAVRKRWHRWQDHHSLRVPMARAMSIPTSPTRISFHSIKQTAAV
Method in brief: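 cAMP accumulation was measured by HTRF 665/620 nm ratio after 30 min at 37° C compound exposure (16 twofold dilutions) of CRF2a-expressing TeloHEAC cells, 10000/well, in HEPES-buffered HBSS plus IBMX. Activity was normalised to urocortin 2 at 100 nM (100%), and EC50 was the concentration giving half-maximal activation.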

CFR1R receptor = target: T2, CFR1R receptor (Homo sapiens, UniProt P34998); experiment: Activity at anti-target CFR1R receptor, cAMP assay in CRF1R-overexpression CHO-K1 cells; format: cell-based; conditions: 100% = Sauvagine at 100 nM; for EC50: cAMP
T2 construct: host or cells: CHO-K1 (clone 2)
T2 sequence (P34998 24-415): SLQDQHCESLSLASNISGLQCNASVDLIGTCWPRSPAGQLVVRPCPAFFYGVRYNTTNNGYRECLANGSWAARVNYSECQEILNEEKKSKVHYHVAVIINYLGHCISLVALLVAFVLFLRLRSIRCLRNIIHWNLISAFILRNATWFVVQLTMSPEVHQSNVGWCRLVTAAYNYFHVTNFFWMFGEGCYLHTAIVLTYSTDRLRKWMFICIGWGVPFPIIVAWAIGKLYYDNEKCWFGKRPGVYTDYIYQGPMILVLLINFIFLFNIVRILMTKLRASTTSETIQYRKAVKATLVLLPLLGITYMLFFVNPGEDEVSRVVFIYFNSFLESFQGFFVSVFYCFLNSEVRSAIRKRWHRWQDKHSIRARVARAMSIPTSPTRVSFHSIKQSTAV
Method in brief: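 Uses frozen stocks of CHO-K1 clone 2 cells overexpressing human CRF1R, plated at 4000 cells/well final, with cAMP measured by the same protocol as the TeloHAEC line. Full-activation control: 100 nM Sauvagine.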

[1] = In vitro subcutaneous tissue supernatant (SCts) stability and metabolite identification, rat; format: in vitro ADME; set-up: remaining at 2 h: dose or concentration left out as unconfirmed; conditions: male, Sprague Dawley; rat subcutaneous tissue supernatant (SCts), 37° C, 2 h
Procedure: In vitro metabolic stability in subcutaneous tissue supernatant (SCts) was studied in male Sprague Dawley rats. Test compounds were incubated […] for 2 hours at 37° C.
Software aided in vitro metabolite identification on SCts stability samples was performed using either Metabolite Pilot (Sciex) or Biopharma Finder (Thermo). In addition, metabolite identification using Metabolite Pilot was performed on plasma samples of Comp Y following SC administration to rat at 1 mg/kg.

[2] = Chemical stability in buffer (pH 7.4 / pH 4.5), % purity loss; format: physicochemical; conditions: 40° C. vs 5° C., 14 or 28 days; for Buffer stability pH 7.4 % purity loss: 100 mM phosphate buffer pH 7.4
Method in brief: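 LC-UV gave % loss after 14 or 28 days of storage at 5 °C or 40 °C. Samples were diluted supernatants from compound incubated 1 h at room temperature at 10 mg/mL target, in 100 mM acetate pH 4.5 or 100 mM phosphate pH 7.4.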

Sprague Dawley rats = experiment: Effect on systolic blood pressure, telemetry in Sprague Dawley rats; format: in vivo, rat; conditions: 0.1 mg/kg SC; for Systolic blood pressure (Mean) % change from baseline, 8 h / Systolic blood pressure (Mean) % change from baseline, 12 h / Systolic blood pressure (Mean) % change from baseline, 24 h: n=2; for Duration of action: last time point with an effect on BP still observed
Method in brief: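 Values are % change from a 1 h pre-dose baseline in systolic pressure, tracked by telemetry for up to 48 hours after a single 0.1 mg/kg subcutaneous dose. Rats (Sprague Dawley, n=2 per peptide) carried aortic catheters and recovered at least 10 days post-surgery; duration of action marks the last time point still showing an effect.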

EC50 (human CRF2a receptor) [nM]	Emax (% I) (CFR1R receptor)	EC50 (CFR1R receptor) [nM]	remaining at 2 h [1] [%]	Buffer stability pH 7.4 % purity loss [2]	Buffer stability pH 4.5 % purity loss ([2]; 100 mM acetate buffer pH 4.5)	SMILES	Systolic blood pressure (Mean) % change from baseline, 8 h (Sprague Dawley rats) [%]	Systolic blood pressure (Mean) % change from baseline, 12 h (Sprague Dawley rats) [%]	Systolic blood pressure (Mean) % change from baseline, 24 h (Sprague Dawley rats) [%]	Duration of action (Sprague Dawley rats) [h]
0.25	0	> 250	79	0/nd ^ %	–	CC[C@H](C)[C@H](NC(C)=O)C(=O)N[C@H](C(=O)N[C@@H](CC(C)C)C(=O)N[C@@H](CO)C(=O)N[C@@H](CC(C)C)C(=O)N[C@@H](CC(=O)O)C(=O)N[C@@H](C(=O)N1CCC[C@H]1C(=O)N[C@H](C(=O)N[C@@H](CCCCN)C(=O)N[C@@H](CC(C)C)C(=O)N[C@@H](CCCCNC(=O)CC[C@H](NC(=O)CCCCCCCCCCCCCCC(=O)O)C(=O)O)C(=O)N[C@@H](CCCCN)C(=O)N[C@H](C(=O)N[C@@H](CC(C)C)C(=O)N[C@@H](CC(C)C)C(=O)N[C@@H](CCC(=O)O)C(=O)N[C@@H](CCC(N)=O)C(=O)N[C@@H](CCC(=O)O)C(=O)N[C@@H](CCCCN)C(=O)N[C@@H](CCC(N)=O)C(=O)N[C@@H](CCCCN)C(=O)N[C@@H](CCCCN)C(=O)N[C@@H](CCC(N)=O)C(=O)N[C@@H](CCCNC(=N)N)C(=O)N[C@@H](CCC(=O)O)C(=O)N[C@@H](CCC(N)=O)C(=O)N[C@@H](C)C(=O)N[C@@H](CCC(=O)O)C(=O)N[C@H](C(=O)N[C@@H](CC(N)=O)C(=O)NC(C)(C)C(=O)N[C@@H](CCC(N)=O)C(=O)N[C@H](C(=O)N[C@@H](CC(C)C)C(=O)N[C@@H](C)C(=O)N[C@@H](CCC(N)=O)C(=O)N[C@H](C(N)=O)C(C)C)[C@@H](C)CC)[C@@H](C)O)[C@@H](C)CC)[C@@H](C)CC)C(C)C)C(C)C [compound 40] (Ac-IVLSLD[dV]PIKLK([γGlu-C16 diacid])KILLEQEKQKKQREQAETN[Aib]QILAQV-NH2)	−30	−18	7	23
0.64	14	> 250	72	0.0/Not Tested %	–	CC[C@H](C)[C@H](NC(C)=O)C(=O)N[C@H](C(=O)N[C@@H](CC(C)C)C(=O)N[C@@H](CO)C(=O)N[C@@H](CC(C)C)C(=O)N[C@@H](CC(=O)O)C(=O)N[C@@H](C(=O)N1CCC[C@H]1C(=O)N[C@H](C(=O)N[C@@H](CCCCN)C(=O)N[C@@H](CC(C)C)C(=O)N[C@@H](CCCCNC(=O)CC[C@H](NC(=O)CCCCCCCCCCCCCCC(=O)O)C(=O)O)C(=O)N[C@@H](CCCCN)C(=O)N[C@H](C(=O)N[C@@H](CC(C)C)C(=O)N[C@@H](CC(C)C)C(=O)N[C@@H](CCC(=O)O)C(=O)N[C@@H](CCC(N)=O)C(=O)N[C@@H](CCC(=O)O)C(=O)N[C@@H](C)C(=O)N[C@@H](CCC(N)=O)C(=O)N[C@@H](CCCCN)C(=O)N[C@@H](CCCCN)C(=O)N[C@@H](CCC(N)=O)C(=O)N[C@@H](CCCNC(=N)N)C(=O)N[C@@H](CCC(=O)O)C(=O)N[C@@H](CCC(N)=O)C(=O)N[C@@H](C)C(=O)N[C@@H](CCC(=O)O)C(=O)N[C@H](C(=O)N[C@@H](CC(N)=O)C(=O)NC(C)(C)C(=O)N[C@@H](CCC(N)=O)C(=O)N[C@H](C(=O)N[C@@H](CC(C)C)C(=O)N[C@@H](C)C(=O)N[C@@H](CCC(N)=O)C(=O)N[C@H](C(N)=O)C(C)C)[C@@H](C)CC)[C@@H](C)O)[C@@H](C)CC)[C@@H](C)CC)C(C)C)C(C)C [compound 165] (Ac-IVLSLD[dV]PIKLK([γGlu-C16 diacid])KILLEQEAQKKQREQAETN[Aib]QILAQV-NH2)	−30	−20	2	23
0.12	34	> 250	72	0.0/0.0 ^ %	0.0/0.0 ^ %	CC[C@H](C)[C@H](NC)C(=O)N[C@H](C(=O)N[C@@H](CC(C)C)C(=O)N[C@@H](CO)C(=O)N[C@@H](CC(C)C)C(=O)N[C@@H](CC(=O)O)C(=O)N[C@@H](C(=O)N1CCC[C@H]1C(=O)N[C@H](C(=O)N[C@@H](CCCCN)C(=O)N[C@@H](CC(C)C)C(=O)N[C@@H](CCCCNC(=O)CC[C@H](NC(=O)CCCCCCCCCCCCCCCCCCC(=O)O)C(=O)O)C(=O)N[C@@H](CCCCN)C(=O)N[C@H](C(=O)N[C@@H](CC(C)C)C(=O)N[C@@H](CC(C)C)C(=O)N[C@@H](CCC(=O)O)C(=O)N[C@@H](CCC(N)=O)C(=O)N[C@@H](CCC(=O)O)C(=O)N[C@@H](CCCCN)C(=O)N[C@@H](CCC(N)=O)C(=O)N[C@@H](CCCCN)C(=O)N[C@@H](CCCCN)C(=O)N[C@@H](CCC(N)=O)C(=O)N[C@@H](CCCNC(=N)N)C(=O)N[C@@H](CCC(=O)O)C(=O)N[C@@H](CCC(N)=O)C(=O)N[C@@H](C)C(=O)N[C@@H](CCC(=O)O)C(=O)N[C@H](C(=O)N[C@@H](CC(N)=O)C(=O)NC(C)(C)C(=O)N[C@@H](CCC(N)=O)C(=O)N[C@H](C(=O)N[C@@H](CC(C)C)C(=O)N[C@@H](C)C(=O)N[C@@H](CCC(N)=O)C(=O)N[C@H](C(N)=O)C(C)C)[C@@H](C)CC)[C@@H](C)O)[C@@H](C)CC)[C@@H](C)CC)C(C)C)C(C)C [compound 214] (H-[NMeI]VLSLD[dV]PIKLK([γGlu-C20 diacid])KILLEQEKQKKQREQAETN[Aib]QILAQV-NH2)	–	–	–	–
0.28	10	> 250	65	0.0/Not Tested %	–	CC[C@H](C)[C@H](NC(C)=O)C(=O)N[C@H](C(=O)N[C@@H](CC(C)C)C(=O)N[C@@H](CO)C(=O)N[C@@H](CC(C)C)C(=O)N[C@@H](CC(=O)O)C(=O)N[C@@H](C(=O)N1CCC[C@H]1C(=O)N[C@H](C(=O)N[C@@H](CCCCN)C(=O)N[C@@H](CC(C)C)C(=O)N[C@@H](CCCCNC(=O)COCCOCCNC(=O)CC[C@H](NC(=O)CCCCCCCCCCCCCCCCCCC(=O)O)C(=O)O)C(=O)N[C@@H](CCCCN)C(=O)N[C@H](C(=O)N[C@@H](CC(C)C)C(=O)N[C@@H](CC(C)C)C(=O)N[C@@H](CCC(=O)O)C(=O)N[C@@H](CCC(N)=O)C(=O)N[C@@H](CCC(=O)O)C(=O)N[C@@H](CCCCN)C(=O)N[C@@H](CCC(N)=O)C(=O)N[C@@H](CCCCN)C(=O)N[C@@H](CCC(=O)O)C(=O)N[C@@H](CCC(N)=O)C(=O)N[C@@H](CCCNC(=N)N)C(=O)N[C@@H](CCC(=O)O)C(=O)N[C@@H](CCC(N)=O)C(=O)N[C@@H](C)C(=O)N[C@@H](CCC(=O)O)C(=O)N[C@H](C(=O)N[C@@H](CC(N)=O)C(=O)NC(C)(C)C(=O)N[C@@H](CCC(N)=O)C(=O)N[C@H](C(=O)N[C@@H](CC(C)C)C(=O)N[C@@H](C)C(=O)N[C@@H](CCC(N)=O)C(=O)N[C@H](C(N)=O)C(C)C)[C@@H](C)CC)[C@@H](C)O)[C@@H](C)CC)[C@@H](C)CC)C(C)C)C(C)C [compound 231] (Ac-IVLSLD[dV]PIKLK([AEEA-γGlu-C20 diacid])KILLEQEKQKEQREQAETN[Aib]QILAQV-NH2)	−3	−3	−12	>24
